Key:
human MPC1L/MPC2 complex [1] = target: T1, human MPC1L/MPC2 complex (Homo sapiens, UniProt O95563+P0DKB6); experiment: CPM thermostability shift assay, purified MPC1L/MPC2; type: binding; settings: for ΔTm at 100 µM / Tm, CPM assay / ∆Tm, CPM assay (thermal shift compared to no-ligand control): inhibitor 100 μM; for ΔTm at 100 µM: read-out: ∆Tm, CPM assay (thermal shift compared to no-ligand control); for Tm, CPM assay: unliganded 51.3 ± 0.2, mean ± s.d., 3 biological repeats
T1 construct: eight-histidine tag (C, cleaved yes); TEV protease cleavage site (part stays on MPC2 after digestion) (C, cleaved yes); made in house; host or cells: Saccharomyces cerevisiae SHY15 (mpc triple deletion strain), purified from mitochondria
T1 sequence (P0DKB6 2-136): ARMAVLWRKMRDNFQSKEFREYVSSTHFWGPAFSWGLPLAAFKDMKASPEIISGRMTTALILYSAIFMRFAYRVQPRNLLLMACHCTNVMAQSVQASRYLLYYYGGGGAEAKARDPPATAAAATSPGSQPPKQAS
T1 sequence (O95563 2-127): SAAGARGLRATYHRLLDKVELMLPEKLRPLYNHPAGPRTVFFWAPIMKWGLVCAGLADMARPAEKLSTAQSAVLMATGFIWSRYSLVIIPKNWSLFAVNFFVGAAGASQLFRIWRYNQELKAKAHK
Method: (§1) The assessment of ligand binding was performed via shifts in protein thermostability upon binding using thermal denaturation on a rotary quantitative PCR (qPCR) instrument (Qiagen Rotor-Gene Q 2plex HRM, Venlo, Netherlands), as previously described. In this method, cysteine residues, buried within the protein structure, become solvent-exposed during denaturation in a temperature ramp and then react with 7-diethylamino-3-(4-maleimidophenyl)-4-methylcoumarin (CPM) to form fluorescent-adducts. Briefly, a CPM working solution was prepared by diluting the CPM stock (5 mg/mL in dimethyl sulfoxide) 50-fold into assay buffer (20 mM Tris–HCl, pH 7.4, 150 mM NaCl, 0.1% (w/v) LMNG, 0.1 mg/mL TOCL) and incubated for 10 min at room temperature. In each analysis, performed in duplicates or triplicates, 3 μg of purified MPC was diluted into 45 μL of assay buffer containing the desired concentration of the inhibitor then incubated for 10 min on ice. Next, 5 μL of the CPM working solution were added. Samples were incubated on ice for an additional 10 min then subjected to a temperature ramp of 5.6 °C/min. The fluorescence increase was monitored with the HRM channel of the instrument (excitation at 440–480 nm, emission at 505–515 nm). Unfolding profiles were analysed with the Rotor-Gene Q software 2.3, and the peaks of their derivatives were used to determine the apparent melting temperature.

MPC1/MPC2 hetero-dimer = target: T2, MPC1/MPC2 hetero-dimer (Homo sapiens, UniProt O95563+Q9Y5U8); experiment: CPM thermostability shift assay, MPC1/MPC2; type: binding; settings: 100 μM inhibitor
T2 construct: eight-histidine tag (C, cleaved yes); Factor Xa cleavage site (C, cleaved yes); made in house; host or cells: Saccharomyces cerevisiae SHY15 (mpc triple deletion strain), purified from mitochondria
T2 sequence (Q9Y5U8 2-109 limits assumed): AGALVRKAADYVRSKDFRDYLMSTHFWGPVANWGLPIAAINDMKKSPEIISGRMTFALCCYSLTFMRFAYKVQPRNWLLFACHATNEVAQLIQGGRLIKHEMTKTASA
T2 sequence (O95563 2-127 limits assumed): T1 sequence (O95563 2-127)
Method: as §1

MPC2 protomer = target: T3, MPC2 protomer (Homo sapiens, UniProt O95563); experiment: CPM thermostability shift assay, individually purified MPC2; type: binding; settings: 100 μM inhibitor
T3 construct: Factor Xa or TEV cleavage site followed by eight-histidine tag (C); made in house
T3 sequence (O95563 1-127): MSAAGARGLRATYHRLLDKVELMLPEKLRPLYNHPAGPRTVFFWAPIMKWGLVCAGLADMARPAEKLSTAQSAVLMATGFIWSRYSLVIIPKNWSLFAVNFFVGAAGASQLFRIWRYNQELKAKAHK
Method: as §1

human MPC1L/MPC2 complex [2] = target: T1, human MPC1L/MPC2 complex; experiment: nano-DSF thermostability shift assay, purified MPC1L/MPC2; type: binding; settings: inhibitor 100 μM; for Tm, nano-DSF: unliganded 51.9 ± 0.1, mean ± s.d., 2 biological repeats
Method: Ligand binding was also assessed using dye-free nano differential scanning fluorimetry (nano-DSF) to monitor fluorescence changes due to altered environments of tryptophan and tyrosine residues during unfolding. Protein samples in buffer containing 20 mM Tris–HCl pH 7.4, 150 mM NaCl, 0.1% (w/v) LMNG, 0.1 mg/mL TOCL, in the presence or absence of the indicated concentrations of small molecule inhibitors, were loaded into capillary tubes, and a temperature ramp of 5 °C/min was applied. The intrinsic fluorescence was measured using the NanoTemper Prometheus NT.48 (NanoTemper, München, Germany).

[3] = target: T4, human MPC1L/MPC2 hetero-dimer (Homo sapiens, UniProt O95563+P0DKB6); experiment: Inhibition of [14C]-pyruvate homo-exchange in MPC1L/MPC2 proteoliposomes; type: biochemical; settings: for Inhibition of pyruvate transport, residual activity compared to control: compound 100 μM; for Inhibition of pyruvate transport, residual activity compared to control / IC50: MPC1L/MPC2 proteoliposomes; for IC50: 50 μM [14C]-pyruvate homo-exchange, mean ± s.d., read-out: IC50 of pyruvate transport inhibition; for Inhibitory potency for human MPC1L/MPC2 compared to yeast Mpc1/Mpc3: human vs yeast protein, yeast values ref 15
T4 construct: eight-histidine tag (C, cleaved yes); TEV protease cleavage site (part stays on MPC2 after digestion) (C, cleaved yes); made in house; host or cells: Saccharomyces cerevisiae SHY15 (mpc triple deletion strain), purified from mitochondria
T4 sequence (P0DKB6 2-136): T1 sequence (P0DKB6 2-136)
T4 sequence (O95563 2-127): T1 sequence (O95563 2-127)
Method: Egg L-α-phosphatidylcholine 99% (w/v) (Avanti Polar Lipids, AL, USA) and TOCL were mixed in a 20:1 (w/w) ratio, dried under a stream of nitrogen and washed once with methanol before being dried again. Lipids were hydrated in 20 mM Tris–HCl, pH 8.0, 50 mM NaCl to a concentration of 12 mg/mL. Unlabeled pyruvate was added as a freshly made concentrated stock at a final concentration of 5 mM for internalisation. Lipids were solubilised with 1.2% (v/v) pentaethylene glycol monodecyl ether (Sigma) and freshly purified protein was added at a lipid-to-protein ratio of 250:1 (w/w). Samples were incubated on ice for 5 min, then liposomes were formed by the step-wise removal of pentaethylene glycol monodecyl ether by five additions at 20 min intervals of 60 mg Bio-Beads SM-2 (Bio-Rad, Watford, UK) with gentle mixing at 4 °C. A final addition of 480 mg Bio-Beads was incubated with the samples overnight. Proteoliposomes were first separated from the Bio-Beads by passage through empty spin columns (Bio-Rad, Watford, UK) and subsequently pelleted at 120,000×g for 60 min. The proteoliposomes were resuspended with a thin needle in 150 μL of their supernatant after the rest of the supernatant was removed.
The time course of pyruvate homo-exchange was measured at room temperature. The transport was initiated by diluting proteoliposomes 200-fold into external buffer, 20 mM MES, pH 6.4, 50 mM NaCl, containing 50 μM [^14C]-pyruvate (500,000 dpm, Perkin Elmer, MA, USA). The reaction (0–30 s) was terminated by rapid dilution into 8 volumes of ice-cold internal buffer (20 mM Tris–HCl, pH 8.0, 50 mM NaCl), followed by rapid filtration through cellulose nitrate 0.45 μm filters (Millipore, Gillingham, UK) and washing with an additional 8 volumes of buffer. The filters were dissolved in Ultima Gold scintillation liquid (Perkin Elmer, MA, USA) and the radioactivity was counted with a Perkin Elmer Tri-Carb 2800 RT liquid scintillation counter. […] The data analysis was performed with non-linear regression fittings using GraphPad Prism 7.0d ([Inhibitor] vs response, variable slope). The specific uptake rates were calculated based on the amount of protein used in reconstitutions, as estimated from bicinchoninic acid assay. The biological repeats represent independent proteoliposome preparations using protein from independent purifications.

mammalian MPCs = settings: cited from earlier work; for Ki: isolated mitochondria
[4] = target: T5, recombinant human MPC1L/MPC2 (Homo sapiens, UniProt O95563+P0DKB6); experiment: Electrospray mass spectrometry of MPC1L/MPC2 after reaction with inhibitors or sulfhydryl modifiers; settings: for Mass difference (observed vs calculated), MPC1L (2–136) / Mass difference (observed vs calculated), MPC1L (5–136) / Mass difference (observed vs calculated), MPC2 (2–137): MPC1L/MPC2 after reaction with compound; for Covalent modification of MPC protomers (molecular mass change): folded MPC1L/MPC2 incubated with compound, ESI-MS
T5 construct: MPC1L (2–136); MPC2 (2–137); eight-histidine tag (C, cleaved yes); TEV protease cleavage site (part stays on MPC2 after digestion) (C, cleaved yes); made in house; host or cells: Saccharomyces cerevisiae SHY15 (mpc triple deletion strain), purified from mitochondria
T5 sequence (P0DKB6 2-136 limits assumed): T1 sequence (P0DKB6 2-136)
T5 sequence (O95563 2-127 limits assumed): T1 sequence (O95563 2-127)
Method: Different MPC inhibitors (Table1) or sulfhydryl reagents were first incubated with MPC1L/MPC2 in a folded state, then the protein molecular masses were measured by electrospray mass spectrometry. The MPC subunits (10 μg) were resolved by reverse-phase HPLC on a PLRP-S column (1.0 mm i.d. X 75 mm; VARIAN) using a gradient of 2-propanol in a solvent system compatible with the recovery of membrane proteins (Carroll et al., 2009). The eluate (50 μL/min) was introduced into a QTRAP4000 (SCIEX) mass spectrometer operating in positive ion single MS mode. The instrument was scanned from 700 m/z to 2300 m/z after calibration with ions from a mixture of 1.0 μM of myoglobin and 1.5 μM trypsinogen. Molecular masses were obtained by reconstruction of the spectra of multiply charged ions using PeakView (SCIEX).

Compound: N#CC(=Cc1ccc(O)cc1)C(=O)O [CHC, α-cyano-4-hydroxy-cinnamate]
- ΔTm at 100 µM (human MPC1L/MPC2 complex [1]): 8.3 ± 0.6 °C
- Tm, CPM assay (human MPC1L/MPC2 complex [1]): 59.6 ± 0.4 °C
- Thermostability shift of MPC1/MPC2 (MPC1/MPC2 hetero-dimer): strong shifts
- Thermostability shift of MPC2 alone (MPC2 protomer): neither CHC nor zaprinast showed any shift
- ∆Tm, nano-DSF (human MPC1L/MPC2 complex [2]): 7.0 ± 0.5 °C
- Tm, nano-DSF (human MPC1L/MPC2 complex [2]): 58.9 ± 0.4 °C
- Inhibition of pyruvate transport, residual activity compared to control [3]: completely inhibited

Compound: O=C(O)c1nn(Cc2ccc(Cl)cc2Cl)c2ccccc12 [Lonidamine, lonidamine]
- Thermal shift in the CPM assay (human MPC1L/MPC2 complex [1]; compound 1 mM): negative thermal shift
- ∆Tm, CPM assay (thermal shift compared to no-ligand control) (human MPC1L/MPC2 complex [1]): No thermal shifts
- ΔTm at 100 µM (human MPC1L/MPC2 complex [1]): -0.2 ± 0.5 °C
- Tm, CPM assay (human MPC1L/MPC2 complex [1]): 51.1 ± 0.3 °C
- ∆Tm, nano-DSF (human MPC1L/MPC2 complex [2]): 0.6 ± 0.3 °C
- ∆Tm, nano-DSF (human MPC1L/MPC2 complex [2]; listed as lonidamine): No thermal shifts
- Tm, nano-DSF (human MPC1L/MPC2 complex [2]): 52.5 ± 0.2 °C
- Ki (mammalian MPCs): 2500 nM
- IC50 [3]: 4600 ± 1300 nM
- Inhibitory potency for human MPC1L/MPC2 compared to yeast Mpc1/Mpc3 [3]: much higher potencies

Compound: N#CC(=Cc1cn(-c2ccccc2)c2ccccc12)C(=O)O [UK5099, α-cyano-β-(1-phenylindol-3-yl)-acrylate]
- ΔTm at 100 µM (human MPC1L/MPC2 complex [1]): 11.2 ± 1.1 °C
- Tm, CPM assay (human MPC1L/MPC2 complex [1]): 62.5 ± 0.9 °C
- ∆Tm, nano-DSF (human MPC1L/MPC2 complex [2]): 9.2 ± 0.7 °C
- Tm, nano-DSF (human MPC1L/MPC2 complex [2]): 61.1 ± 0.6 °C
- Ki (mammalian MPCs): ~50 nM
- Mass difference (observed vs calculated), MPC1L (2–136) [4]: 0.6 Da
- Mass difference (observed vs calculated), MPC1L (5–136) [4]: 0.6 Da
- Mass difference (observed vs calculated), MPC2 (2–137) [4]: 1.7 Da
- Covalent modification of MPC protomers (molecular mass change) [4]: no molecular mass differences
- Inhibition of pyruvate transport, residual activity compared to control [3]: completely inhibited

Compound: CCCC(CCC)C(=O)O [Valproic acid, valproic acid]
- ∆Tm, CPM assay (thermal shift compared to no-ligand control) (human MPC1L/MPC2 complex [1]): no effect at all
- ΔTm at 100 µM (human MPC1L/MPC2 complex [1]): 0 °C
- Tm, CPM assay (human MPC1L/MPC2 complex [1]): 51.3 ± 0.3 °C
- ∆Tm, nano-DSF (human MPC1L/MPC2 complex [2]): -0.1 ± 0.3 °C
- Tm, nano-DSF (human MPC1L/MPC2 complex [2]): 51.8 ± 0.2 °C
- Effect on pyruvate transport ([3]; 1 mM final concentration): minimal

Compound: CCCOc1ccccc1-c1nc2nn[nH]c2c(=O)[nH]1 [Zaprinast]
- ΔTm at 100 µM (human MPC1L/MPC2 complex [1]): 7.5 ± 0.6 °C
- Tm, CPM assay (human MPC1L/MPC2 complex [1]): 58.8 ± 0.4 °C
- Thermostability shift of MPC1/MPC2 (MPC1/MPC2 hetero-dimer): strong shifts
- Thermostability shift of MPC2 alone (MPC2 protomer): neither CHC nor zaprinast showed any shift
- ∆Tm, nano-DSF (human MPC1L/MPC2 complex [2]): 6.3 ± 0.4 °C
- Tm, nano-DSF (human MPC1L/MPC2 complex [2]): 58.2 ± 0.3 °C
- Mass difference (observed vs calculated), MPC1L (2–136) [4]: 0.4 Da
- Mass difference (observed vs calculated), MPC1L (5–136) [4]: 0.3 Da
- Mass difference (observed vs calculated), MPC2 (2–137) [4]: 1.5 Da
- Covalent modification of MPC protomers (molecular mass change) [4]: no molecular mass differences
- IC50 [3]: 321 ± 42 nM
- Inhibition of pyruvate transport, residual activity compared to control [3]: completely inhibited
- Inhibitory potency for human MPC1L/MPC2 compared to yeast Mpc1/Mpc3 [3]: much higher potencies

Compound: O=C(O)C(F)=Cc1ccccc1 [α-fluorocinnamate]
- Potency relative to α-cyano-cinnamate (times less potent) (mammalian MPCs): 1,000 times
